Source: publication PMC5426640, “A novel multifunctional peptide oligomer of bacitracin with possible bioindustrial and therapeutic applications from a Korean food-source Bacillus strain” (PLoS ONE, 2017)
Where a SMILES comes first, the peptide text is derived from it. Bridges are numbered along the chain shown (N, C = ends). [ ]: non-standard residue; d: D form. The star is where a group is joined. Ileψ(thiazoline)Cys = CC[C@H](C)[C@H](N)C1=N[C@H](C(=O)*)CS1; dOrn = NCCC[C@@H](N)C(=O)O

Tests used:
[1] = system: Micrococcus luteus ATCC 9341; assay: Thermostability, residual antimicrobial activity; assay type: physicochemical; conditions: residual antimicrobial activity vs Micrococcus luteus ATCC 9341, mean ± SD, n = 3
Experimental: (§1) After heat treatment (30–121°C, 10–60 min), the samples were tested for residual antimicrobial activity against indicator strain Micrococcus luteus ATCC 9341. Effects of pH on antimicrobial activity were estimated by varying the pH levels. Samples were diluted in the following buffers: citrate with Na2HPO4 (pH 3.0–7.0), Tris-HCl (pH 7.0–9.0), and NaHCO3 with NaOH (pH 10.0–11.0). After incubation for 1 h at room temperature, pH in the samples was adjusted to 7.0, and the samples were tested for antimicrobial activity against the indicator strain. The AMP was digested with various proteolytic enzymes at a final concentration of 1 mg/mL: […] (50 mM Tris-HCl, pH 7.5), protease K (50 mM Tris-HCl, pH 7.5), α-chymotrypsin (50 mM Tris-HCl, pH 7.5), or trypsin (50 mM Tris-HCl, pH 8.0). After 1-h incubation at room temperature, the enzymes were boiled for 2 min for inactivation.

TNF-α = assay: ELISA of cytokine production in LPS-stimulated RAW 264.7 cells; assay type: cell-based, mouse; conditions: 10–100 μg/mL before LPS 1 μg/mL for 24 h; ELISA of supernatant
Experimental: (§2) The concentration of nitrite in the supernatant was calculated using a sodium nitrite standard curve. The supernatant was analyzed for TNF-α, IL-1β, and IL-6 by ELISAs using commercial kits (BD Biosciences) according to the manufacturer’s instructions.

IL-6 = assay: as above; assay type: cell-based, mouse; conditions: 10–100 μg/mL before LPS 1 μg/mL for 24 h; ELISA of supernatant
Experimental: as §2

IL-1β = assay: as above; assay type: cell-based, mouse; conditions: 10–100 μg/mL before LPS 1 μg/mL for 24 h; ELISA of supernatant
Experimental: as §2

[2] = system: Micrococcus luteus ATCC 9341; assay: pH stability, residual antimicrobial activity; assay type: physicochemical; conditions: 1 h at room temperature, residual antimicrobial activity vs indicator strain, n = 3
Experimental: as §1

COX-2 mRNA = assay: RT-PCR of mRNA expression in LPS-stimulated RAW 264.7 cells; assay type: cell-based, mouse; conditions: 10, 50, or 100 μg/mL, LPS 2–12 h, GAPDH control
Experimental: (§3) Total RNA from the AMP-treated cells was prepared using the RNAiso Reagent (Takara) and was stored at −80°C until use. For the detection of iNOS, COX-2, TNF-α, IL-Iβ, and IL-6, total RNA was extracted after stimulation and treatment. The mRNA expression levels of iNOS, COX-2, TNF-α, IL-Iβ, and IL-6 in the treated cells were compared to the expression levels in control cells. One microgram of RNA was reverse-transcribed into cDNA and used as a template for PCR amplification. PCR was performed on a DNA Gene Cycler, under the following conditions: 40 cycles of denaturation at 94°C for 30 s, annealing at 58°C for 30 s, and primer extension at 72°C for 40 s. PCR products were analyzed on 1% agarose gels, and bands were visualized by ethidium bromide staining.

IL-6 mRNA = assay: as above; assay type: cell-based, mouse; conditions: 10, 50, or 100 μg/mL, LPS 2–12 h, GAPDH control
Experimental: as §3

IL-1β mRNA = assay: as above; assay type: cell-based, mouse; conditions: 10, 50, or 100 μg/mL, LPS 2–12 h, GAPDH control
Experimental: as §3

TNF-α mRNA = assay: as above; assay type: cell-based, mouse; conditions: 10, 50, or 100 μg/mL, LPS 2–12 h, GAPDH control
Experimental: as §3

iNOS mRNA = assay: as above; assay type: cell-based, mouse; conditions: 10, 50, or 100 μg/mL, LPS 2–12 h, GAPDH control
Experimental: as §3

iNOS = assay: Western blot of protein expression in LPS-stimulated RAW 264.7 cells; assay type: cell-based, mouse; conditions: 10, 50, or 100 μg/mL, LPS 1 μg/mL, 24 h
Experimental: (§4) Macrophages were incubated with or without LPS in the presence or absence of the AMPs. Cells were harvested, washed twice with ice-cold Tris-HCl-buffered saline (TBS), and resuspended in lysis buffer [100 mM Tris-HCl, 5 mM EDTA, 50 mM NaCl, 50 mM β- glycerophosphate, 50 mM NaF (sodium fluoride), 0.5% NP-40, 1% sodium deoxycholate, 0.1 mM sodium orthovanadate, and 1% phenylmethylsulfonyl fluoride (PMSF)]. The cytosolic fraction was obtained from the supernatant after […] centrifugation at 4°C for 20 min. Samples (20 μg in terms of protein) were separated by sodium dodecyl sulfate-polyacrylamide gel electrophoresis (SDS-PAGE) in a 10% gel and transferred to polyvinylidene difluoride (PVDF) membranes. The membranes were blocked with 5% nonfat milk in TBS with Tween 20 (0.1%) for 2 h and then incubated with primary antibodies specific for ERK, phospho-ERK, JNK, phospho-JNK, p38 MAPK, phospho-p38 MAPK (all them from Cell Signaling Technology), NF-κB, IκB, and phospho-IκB (1:1000; Santa Cruz Biotechnology). […] After three washes with TBS–Tween 20, the membrane was hybridized with an HRP-conjugated secondary antibody for 1 h. […] The immunoreactive proteins were detected by means of a LAS-3000 Luminescent image analyzer (Fuji Photo Film Co., Ltd., Tokyo, Japan).

COX-2 = assay: as above; assay type: cell-based, mouse; conditions: 10, 50, or 100 μg/mL, LPS 1 μg/mL, 24 h
Experimental: as §4

ERK = assay: Western blot of LPS-induced MAPK phosphorylation in RAW 264.7 cells; assay type: cell-based, mouse; conditions: 10–100 μg/mL, LPS 1 μg/mL
Experimental: (§5) Macrophages were incubated with or without LPS in the presence or absence of the AMPs. Cells were harvested, washed twice with ice-cold Tris-HCl-buffered saline (TBS), and resuspended in lysis buffer [100 mM Tris-HCl, 5 mM EDTA, 50 mM NaCl, 50 mM β- glycerophosphate, 50 mM NaF (sodium fluoride), 0.5% NP-40, 1% sodium deoxycholate, 0.1 mM sodium orthovanadate, and 1% phenylmethylsulfonyl fluoride (PMSF)]. The cytosolic fraction was obtained from the supernatant after […] centrifugation at 4°C for 20 min. Samples (20 μg in terms of protein) were separated by sodium dodecyl sulfate-polyacrylamide gel electrophoresis (SDS-PAGE) in a 10% gel and transferred to polyvinylidene difluoride (PVDF) membranes. The membranes were blocked with 5% nonfat milk in TBS with Tween 20 (0.1%) for 2 h and then incubated with primary antibodies specific for ERK, phospho-ERK, JNK, phospho-JNK, p38 MAPK, phospho-p38 MAPK (all them from Cell Signaling Technology), NF-κB, IκB, and phospho-IκB (1:1000; Santa Cruz Biotechnology). […] After three washes with TBS–Tween 20, the membrane was hybridized with an HRP-conjugated secondary antibody for 1 h. The membranes were washed three times for 10 min and developed with the ECL Western Blotting Detection System (GE Healthcare, Incheon, Republic of Korea,). The immunoreactive proteins were detected by means of a LAS-3000 Luminescent image analyzer (Fuji Photo Film Co., Ltd., Tokyo, Japan).

JNK = assay: as above; assay type: cell-based, mouse; conditions: 10–100 μg/mL, LPS 1 μg/mL
Experimental: as §5

p38 MAPK = assay: as above; assay type: cell-based, mouse; conditions: 10–100 μg/mL, LPS 1 μg/mL
Experimental: as §5

CC[C@H](C)[C@H](N)C1=N[C@H](C(=O)N[C@@H](CC(C)C)C(=O)N[C@H](CCC(=O)O)C(=O)N[C@H](C(=O)N[C@H]2CCCCNC(=O)[C@H](CC(N)=O)NC(=O)[C@@H](CC(=O)O)NC(=O)[C@H](Cc3c[nH]cn3)NC(=O)[C@@H](Cc3ccccc3)NC(=O)[C@H]([C@@H](C)CC)NC(=O)[C@@H](CCCN)NC2=O)[C@@H](C)CC)CS1 [CSP32] ({Ileψ(thiazoline)Cys}-L[dE]IK[dOrn]I[dF]H[dD]N; lactam 4-C; N-terminus assumed)
Residual activity (%) ([1]; heat treatment 30°C, 10 min): 100%
Residual activity (%) ([1]; heat treatment 30°C, 30 min, SD): 100±0.28%
Residual activity (%) ([1]; heat treatment 30°C, 60 min, SD): 100±0.34%
Residual activity (%) ([1]; heat treatment 50°C, 10 min, SD): 100±0.94%
Residual activity (%) ([1]; heat treatment 50°C, 30 min, SD): 98.40±0.39%
Residual activity (%) ([1]; heat treatment 50°C, 60 min, SD): 98.07±0.36%
Residual activity (%) ([1]; heat treatment 70°C, 10 min, SD): 98.07±0.41%
Residual activity (%) ([1]; heat treatment 70°C, 30 min, SD): 98.00±0.41%
Residual activity (%) ([1]; heat treatment 70°C, 60 min, SD): 98.07±0.39%
Residual activity (%) ([1]; heat treatment 90°C, 10 min, SD): 97.73±1.04%
Residual activity (%) ([1]; heat treatment 121°C, 15 min, SD): 65.40±0.17%
Effect on LPS-induced TNF-α release (TNF-α): significantly attenuated
Effect on LPS-induced IL-6 release (IL-6): significantly attenuated
Effect on LPS-induced IL-1β release (IL-1β): significantly attenuated
Residual activity (%) ([2]; pH 2, then adjusted to pH 7.0, mean ± SD, SD): 61.33±1.04%
Residual activity (%) ([2]; pH 3, citrate with Na2HPO4, then adjusted to pH 7.0, mean ± SD, SD): 63.00±1.04%
Residual activity (%) ([2]; pH 4, citrate with Na2HPO4, then adjusted to pH 7.0, mean ± SD, SD): 89.60±3.44%
Residual activity (%) ([2]; pH 6, citrate with Na2HPO4, then adjusted to pH 7.0, mean ± SD, SD): 100±0.50%
Residual activity (%) ([2]; pH 7): 100%
Residual activity (%) ([2]; pH 8, Tris-HCl, then adjusted to pH 7.0, mean ± SD, SD): 100±0.20%
Residual activity (%) ([2]; pH 9, Tris-HCl, then adjusted to pH 7.0, mean ± SD, SD): 100±1.15%
Residual activity (%) ([2]; pH 10, NaHCO3 with NaOH, then adjusted to pH 7.0, mean ± SD, SD): 98±3.38%
Residual activity (%) ([2]; pH 11, NaHCO3 with NaOH, then adjusted to pH 7.0, mean ± SD, SD): 91.33±0.06%
Residual activity (%) ([2]; pH 12, then adjusted to pH 7.0, mean ± SD, SD): 91.77±0.06%
Effect on LPS-induced COX-2 mRNA expression (COX-2 mRNA): significantly attenuated iNOS and COX-2 mRNA upregulation in a dose-dependent manner
Effect on LPS-induced IL-6 mRNA expression (IL-6 mRNA): dose-dependently attenuated the LPS-enhanced expression
Effect on LPS-induced IL-1β mRNA expression (IL-1β mRNA): dose-dependently attenuated the LPS-enhanced expression
Effect on LPS-induced TNF-α mRNA expression (TNF-α mRNA): dose-dependently attenuated the LPS-enhanced expression
Effect on LPS-induced iNOS mRNA expression (iNOS mRNA): significantly attenuated iNOS and COX-2 mRNA upregulation in a dose-dependent manner
Effect on LPS-induced iNOS protein expression (iNOS): significantly attenuated this induction in a dose-dependent manner
Effect on LPS-induced COX-2 protein expression (COX-2): significantly attenuated this induction in a dose-dependent manner
Effect on LPS-induced phosphorylation of ERK (ERK): Phosphorylation decreased in a dose-dependent manner
Effect on LPS-induced phosphorylation of JNK (JNK): Phosphorylation decreased in a dose-dependent manner
Effect on LPS-induced phosphorylation of p38 MAPK (p38 MAPK): Phosphorylation decreased in a dose-dependent manner
